From patent US7601738B2, “Excitatory amino acid receptor antagonists” (Eli Lilly and Company, priority 2001, dated 2009)

melting point | SMILES
> 183 °C (dec.) | Cl.O=C(O)c1cc2ccccc2cc1S[C@H]1CC[C@H]2CN[C@H](C(=O)O)C[C@H]2C1
> 177 °C (dec.) | Cc1ccc(C(=O)O)c(S[C@H]2CC[C@H]3CN[C@H](C(=O)O)C[C@H]3C2)c1.Cl
